These results are taken from publication PMC10795196, “Self-Assembled Materials Based on Fully Aromatic Peptides: The Impact of Tryptophan, Tyrosine, and Dopa Residues” (Langmuir, 2024).

Values after ≈ are worked out from the molar mass of the structure shown. Non-standard residues stand in square brackets, D forms with d. Residues, ends and D or L forms follow the SMILES beside them. No end group written: not given here. Dopa = N[C@@H](Cc1ccc(O)c(O)c1)C(=O)O; AEEA = NCCOCCOCC(=O)O

In general, solubility (thermodynamic) refers to the concentration in solution at equilibrium with solid.

The data set is described as follows: Water solubility determined spectroscopically (absorbance at 280 nm). It counts as physicochemical. The settings on record: direct dissolution of powder in bidistilled water, centrifuged solutions, UV absorbance at 280 nm with calculated ε. On the procedure:
Peptide solutions were prepared by direct dissolution of pure powders in bidistilled water. The analytical concentration of solutions was spectroscopically determined by absorbance on a UV–vis Thermo Fisher Scientific Inc. (Wilmington, Delaware, USA) Nanodrop 2000c spectrophotometer equipped with a 1.0 cm quartz cuvette (Hellma) using the molar absorptivity (ε) at 280 nm reported in Table 1. For each peptide, the ε was calculated using the formula ε(280)= [x·5500 + y·1215 + k·2630] [L·cm^–1·mol^–1], where x, y, and k were the numbers of W, Y, and Dopa residues, respectively. […] Hydrogel formation was triggered using the “solvent switch” method, which consists of the addition of water to a peptide stock solution (100 mg/mL in DMSO). The peptide concentration after water addition was 1.0 wt % (10.0 mg/mL).
To deeply investigate the molecular determinant that can positively or negatively affect the aggregation process, herein, we evaluated the impact generated by replacement of the Phe residue with the Trp (W) one. Trp was selected to assess the effect of a more sterically hindered residue containing the heteroaromatic indole group. On the other side, Tyr residues were replaced by Dopa, characterized by the catechol group in place of the phenol one. Using this design, two novel peptides [(WY)3 and (W-Dopa)3] and their N-PEGylated analogues [PEG8-(WY)3 and PEG8-(W-Dopa)3] were designed (Figure 1). The novel sequences were synthesized using a solid-phase approach, according to the Fmoc/tBu protocols on Rink amide MBHA resin. This support allows for obtaining amidation of the C-terminus. Due to the major steric hindrance of the Trp residue, the synthesis of these primary sequences was more difficult than the previously reported ones and required the employment of a DMF/NMP mixture as solvent. After purification, peptides were lyophilized and their identity was assessed by LC-MS (Figures S1–S4 and Table 1). The estimation of the peptide solubility was spectroscopically determined by recording the absorbance spectra (Figure S5) on the centrifuged peptide solutions. […] As expected, peptides derivatized with the PEG moiety are more soluble than their corresponding unPEGylated versions, thus confirming PEGylation as a helpful strategy to improve intrinsic water solubility of all-aromatic sequences.
As for `NC(=O)[C@H](Cc1ccc(O)c(O)c1)NC(=O)[C@H](Cc1c[nH]c2ccccc12)NC(=O)[C@H](Cc1ccc(O)c(O)c1)NC(=O)[C@H](Cc1c[nH]c2ccccc12)NC(=O)[C@H](Cc1ccc(O)c(O)c1)NC(=O)[C@@H](N)Cc1c[nH]c2ccccc12` [(W-Dopa)3] (H-W[Dopa]W[Dopa]W[Dopa]-NH2), the thermodynamic solubility was 7610 µg/mL (≈ 6.84 mM).

In the case of `NCCOCCOCC(=O)NCCOCCOCC(=O)NCCOCCOCC(=O)NCCOCCOCC(=O)N[C@@H](Cc1c[nH]c2ccccc12)C(=O)N[C@@H](Cc1ccc(O)c(O)c1)C(=O)N[C@@H](Cc1c[nH]c2ccccc12)C(=O)N[C@@H](Cc1ccc(O)c(O)c1)C(=O)N[C@@H](Cc1c[nH]c2ccccc12)C(=O)N[C@@H](Cc1ccc(O)c(O)c1)C(N)=O` [PEG8-(W-Dopa)3] (H-[AEEA][AEEA][AEEA][AEEA]W[Dopa]W[Dopa]W[Dopa]-NH2), the thermodynamic solubility was 15000 µg/mL (≈ 8.86 mM).

Take `NCCOCCOCC(=O)NCCOCCOCC(=O)NCCOCCOCC(=O)NCCOCCOCC(=O)N[C@@H](Cc1c[nH]c2ccccc12)C(=O)N[C@@H](Cc1ccc(O)cc1)C(=O)N[C@@H](Cc1c[nH]c2ccccc12)C(=O)N[C@@H](Cc1ccc(O)cc1)C(=O)N[C@@H](Cc1c[nH]c2ccccc12)C(=O)N[C@@H](Cc1ccc(O)cc1)C(N)=O` [PEG8-(WY)3] (H-[AEEA][AEEA][AEEA][AEEA]WYWYWY-NH2): the thermodynamic solubility was 3770 µg/mL (≈ 2.29 mM).

Regarding WYWYWY-NH2 [(WY)3], the thermodynamic solubility was 1150 µg/mL.
